# Results: BindingDB's records for doi:10.1016/j.ejmech.2014.07.015 (Tianjin University, 2014)
# Residues, ends and D or L forms follow the SMILES beside them.
# Biological target: Angiotensin-converting enzyme (Homo sapiens, UniProt P12821)
# Assay: Inhibition of ACE (unknown origin)
# Chain of Angiotensin-converting enzyme (P12821 whole entry): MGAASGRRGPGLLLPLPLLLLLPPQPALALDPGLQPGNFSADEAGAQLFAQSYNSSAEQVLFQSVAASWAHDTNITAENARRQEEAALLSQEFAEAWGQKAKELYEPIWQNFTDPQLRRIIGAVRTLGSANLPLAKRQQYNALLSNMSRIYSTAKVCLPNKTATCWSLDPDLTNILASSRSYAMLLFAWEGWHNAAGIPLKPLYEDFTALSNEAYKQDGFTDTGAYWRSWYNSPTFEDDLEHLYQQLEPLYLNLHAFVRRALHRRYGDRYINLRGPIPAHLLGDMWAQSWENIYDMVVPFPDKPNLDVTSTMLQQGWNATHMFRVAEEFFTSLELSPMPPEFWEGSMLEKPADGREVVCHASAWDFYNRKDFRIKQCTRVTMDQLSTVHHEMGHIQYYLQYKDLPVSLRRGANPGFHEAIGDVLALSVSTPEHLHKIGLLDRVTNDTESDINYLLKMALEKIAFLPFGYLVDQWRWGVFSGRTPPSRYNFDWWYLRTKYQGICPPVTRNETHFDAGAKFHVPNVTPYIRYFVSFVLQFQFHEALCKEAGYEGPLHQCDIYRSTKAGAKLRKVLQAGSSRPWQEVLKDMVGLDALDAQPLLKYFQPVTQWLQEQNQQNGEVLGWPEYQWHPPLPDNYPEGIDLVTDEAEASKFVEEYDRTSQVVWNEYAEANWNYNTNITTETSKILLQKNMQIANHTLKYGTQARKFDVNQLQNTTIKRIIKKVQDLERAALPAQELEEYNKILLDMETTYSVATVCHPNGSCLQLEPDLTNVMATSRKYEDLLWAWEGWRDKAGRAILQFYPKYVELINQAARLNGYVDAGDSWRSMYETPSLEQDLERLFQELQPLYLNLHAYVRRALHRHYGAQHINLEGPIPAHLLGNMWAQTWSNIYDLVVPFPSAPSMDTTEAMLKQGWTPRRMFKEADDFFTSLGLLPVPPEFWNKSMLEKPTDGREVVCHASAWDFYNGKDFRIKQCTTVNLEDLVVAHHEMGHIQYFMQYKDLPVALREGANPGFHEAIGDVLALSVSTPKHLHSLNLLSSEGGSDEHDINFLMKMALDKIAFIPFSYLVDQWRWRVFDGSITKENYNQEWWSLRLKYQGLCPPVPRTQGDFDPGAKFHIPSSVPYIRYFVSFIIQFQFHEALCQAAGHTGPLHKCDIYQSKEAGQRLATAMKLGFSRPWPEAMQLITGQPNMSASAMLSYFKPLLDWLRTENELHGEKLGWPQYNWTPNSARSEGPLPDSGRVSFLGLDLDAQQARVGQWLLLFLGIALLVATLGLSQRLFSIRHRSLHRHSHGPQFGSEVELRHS
row,IC50 [µM],Compound
1,12,C[C@H](N)C(=O)N[C@@H](Cc1c[nH]c2ccccc12)C(=O)O [(S)-2-((S)-2-Amino-propionylamino)-3-(1H-indol-3-yl)-propionic acid] (H-Ala-Trp-OH)
2,45.7,H-RPQIPP-OH
3,26.3,CC(C)[C@H](N)C(=O)NCC(=O)N1CCC[C@H]1C(=O)O (H-Val-Gly-Pro-OH)
4,15.8,CC(C)[C@H](N)C(=O)N[C@@H](Cc1ccc(O)cc1)C(=O)O [Ang(3-4)] (H-Val-Tyr-OH)
5,10,CSCC[C@H](N)C(=O)N[C@@H](Cc1c[nH]c2ccccc12)C(=O)O [CHEBI:74709] (H-Met-Trp-OH)
6,8.91,H-LHLWLP-OH
7,32.3,CC(C)C[C@H](N)C(=O)N[C@@H](Cc1ccc(O)cc1)C(=O)O
8,4.46,H-VHLAP-OH
9,12,N[C@@H](Cc1ccccc1)C(=O)N[C@@H](CCC(=O)O)C(=O)N1CCC[C@H]1C(=O)O (H-Phe-Glu-Pro-OH)
10,6.02,H-LHLPAP-OH
11,46.7,NC(=O)C[C@H](N)C(=O)N[C@@H](Cc1ccccc1)C(=O)O (H-Asn-Phe-OH)
12,1.9,CC(C)C[C@H](N)C(=O)N[C@@H](CCC(N)=O)C(=O)N1CCC[C@H]1C(=O)O [CHEBI:73270] (H-Leu-Gln-Pro-OH)
13,10,CC(C)[C@H](N)C(=O)N[C@@H](CO)C(=O)N[C@@H](CO)C(=O)N1CCC[C@H]1C(=O)O (H-VSSP-OH)
14,4.78,CC(C)C[C@H](NC(=O)[C@@H](N)CC(=O)O)C(=O)N1CCC[C@H]1C(=O)O (H-Asp-Leu-Pro-OH)
15,32.3,NC(=O)C[C@H](N)C(=O)N[C@@H](Cc1ccc(O)cc1)C(=O)O [CHEBI:73427] (H-Asn-Tyr-OH)
16,44.6,CSCC[C@H](N)C(=O)N[C@@H](Cc1ccccc1)C(=O)O [CHEBI:74708] (H-Met-Phe-OH)
17,51.2,N=C(N)NCCC[C@H](N)C(=O)N[C@@H](Cc1ccc(O)cc1)C(=O)O [CHEBI:73822] (H-Arg-Tyr-OH)
18,66,CSCC[C@H](N)C(=O)N[C@@H](CC(N)=O)C(=O)N1CCC[C@H]1C(=O)O (H-Met-Asn-Pro-OH)
19,89.1,C[C@@H](O)[C@H](N)C(=O)N[C@@H](Cc1ccccc1)C(=O)O [CHEBI:74862] (H-Thr-Phe-OH)
20,6.02,H-FFVAP-OH
21,61.6,H-DYGLYP-OH
22,21.8,NCCCC[C@H](N)C(=O)N1CCC[C@H]1C(=O)O [CHEBI:74567] (H-Lys-Pro-OH)

row,IC50 [µM],Compound
1,36.3,H-VLPYP-OH
2,3.09,CC(C)[C@H](NC(=O)[C@H](C)N)C(=O)NCC(=O)N1CCC[C@H]1C(=O)O (H-AVGP-OH)
3,1.58,CC[C@H](C)[C@H](N)C(=O)N[C@@H](CCC(=O)O)C(=O)N1CCC[C@H]1C(=O)O (H-Ile-Glu-Pro-OH)
4,25.1,N[C@@H](Cc1ccccc1)C(=O)N[C@@H](Cc1ccc(O)cc1)C(=O)O [CHEBI:73637] (H-Phe-Tyr-OH)
5,100,N[C@@H](CC(=O)O)C(=O)N[C@@H](Cc1ccc(O)cc1)C(=O)O [CHEBI:73455] (H-Asp-Tyr-OH)
6,74.1,H-SKVPP-OH
7,6.91,CC[C@H](C)[C@H](N)C(=O)N[C@@H](CCCCN)C(=O)N1CCC[C@H]1C(=O)O (H-Ile-Lys-Pro-OH)
8,18.1,H-VHLPP-OH
9,2.18,CC(C)[C@H](N)C(=O)N[C@@H](CCCNC(=N)N)C(=O)N1CCC[C@H]1C(=O)O (H-Val-Arg-Pro-OH)
10,66,N[C@@H](CO)C(=O)N[C@@H](Cc1ccc(O)cc1)C(=O)O [CHEBI:73652] (H-Ser-Tyr-OH)
11,28.8,CSCC[C@H](NC(=O)[C@@H](N)C(C)C)C(=O)N1CCC[C@H]1C(=O)O (H-Val-Met-Pro-OH)
12,19,H-LHLYLP-OH
13,9.12,CC(C)[C@H](N)C(=O)N[C@@H](Cc1ccccc1)C(=O)O [(S)-2-((S)-2-Amino-3-methyl-butyrylamino)-3-phenyl-propionic acid] (H-Val-Phe-OH)
14,2.69,CC[C@H](C)[C@H](N)C(=O)N[C@@H](C)C(=O)N1CCC[C@H]1C(=O)O [Ile-Ala-Pro] (H-Ile-Ala-Pro-OH)
15,2.18,H-IAYKP-OH
16,4.67,CC[C@H](C)[C@H](N)C(=O)N[C@@H](Cc1c[nH]c2ccccc12)C(=O)O
17,30.9,H-VLPIP-OH
18,19,C[C@H](N)C(=O)N[C@@H](Cc1ccc(O)cc1)C(=O)O [(S)-2-((S)-2-Amino-propionylamino)-3-(4-hydroxy-phenyl)-propionic acid] (H-Ala-Tyr-OH)
19,1.69,CC(C)C[C@H](N)C(=O)N[C@@H](CO)C(=O)N1CCC[C@H]1C(=O)O (H-Leu-Ser-Pro-OH)
20,93.3,N=C(N)NCCC[C@H](N)C(=O)N[C@@H](Cc1ccccc1)C(=O)O
21,3.71,H-LHLPLP-OH
22,79.4,H-AVPYP-OH

row,IC50 [µM],Compound
1,10,CC(C)[C@H](NC(=O)[C@@H](N)Cc1ccccc1)C(=O)N[C@@H](C)C(=O)N1CCC[C@H]1C(=O)O (H-FVAP-OH)
2,10,CC(C)[C@H](N)C(=O)N[C@@H](CO)C(=O)N1CCC[C@H]1C(=O)O (H-Val-Ser-Pro-OH)
3,3.8,C[C@H](NC(=O)[C@@H](N)Cc1ccccc1)C(=O)N1CCC[C@H]1C(=O)O (H-Phe-Ala-Pro-OH)
4,3.46,CC(C)C[C@H](N)C(=O)N[C@@H](C)C(=O)N1CCC[C@H]1C(=O)O (H-Leu-Ala-Pro-OH)
5,57.5,CC(C)C[C@H](N)C(=O)N[C@@H](CC(N)=O)C(=O)N1CCC[C@H]1C(=O)O (H-Leu-Asn-Pro-OH)
6,1.9,H-LHLPGP-OH
7,75.8,C[C@H](N)C(=O)N[C@@H](Cc1ccccc1)C(=O)O [2-(2-Amino-propionylamino)-3-phenyl-propionic acid]
8,3.89,C[C@H](NC(=O)[C@H](Cc1c[nH]c2ccccc12)NC(=O)CN)C(=O)N1CCC[C@H]1C(=O)O (H-GWAP-OH)
9,17.3,CC(C)C[C@H](N)C(=O)N[C@@H](Cc1c[nH]c2ccccc12)C(=O)O [CHEBI:73590]
10,12,NC(=O)CC[C@H](NC(=O)[C@@H](N)Cc1ccccc1)C(=O)N1CCC[C@H]1C(=O)O (H-Phe-Gln-Pro-OH)
11,64.5,H-LAYFYP-OH
12,25.1,NCC(=O)N[C@@H](Cc1c[nH]c2ccccc12)C(=O)O [2-((S)-2-Amino-acetylamino)-3-(1H-indol-3-yl)-propionic acid] (H-Gly-Trp-OH)
13,19.9,N=C(N)NCCC[C@H](NC(=O)CN)C(=O)N1CCC[C@H]1C(=O)O (H-Gly-Arg-Pro-OH)
14,3.98,CC(C)C[C@H](N)C(=O)N[C@@H](CCCCN)C(=O)N1CCC[C@H]1C(=O)O (H-Leu-Lys-Pro-OH)
15,6.16,CC[C@H](C)[C@H](N)C(=O)N[C@@H](Cc1ccc(O)cc1)C(=O)O [(S)-2-((S)-2-Amino-3-(S)-methyl-pentanoylamino)-3-(4-hydroxy-phenyl)-propionic acid] (H-Ile-Tyr-OH)
16,1.9,CC(C)C[C@H](N)C(=O)N[C@@H](CCC(=O)O)C(=O)N1CCC[C@H]1C(=O)O (H-Leu-Glu-Pro-OH)
17,26.3,N[C@@H](Cc1c[nH]cn1)C(=O)N[C@@H](Cc1ccc(O)cc1)C(=O)O [CHEBI:74059] (H-His-Tyr-OH)
18,2.29,H-LHLPYP-OH
19,20.8,NC(N)=NCCC[C@H](N)C(=O)N1CCC[C@H]1C(=O)O (H-Arg-Pro-OH)
20,15.8,NC(N)=NCCC[C@H](N)C(=O)N[C@@H](Cc1c[nH]c2ccccc12)C(=O)O (H-Arg-Trp-OH)
21,6.6,CC(C)C[C@H](N)C(=O)N[C@@H](Cc1ccc(O)cc1)C(=O)N1CCC[C@H]1C(=O)O (H-Leu-Tyr-Pro-OH)

row,Compound,IC50 [µM]
1,NCCCC[C@H](N)C(=O)N[C@@H](Cc1ccccc1)C(=O)O [CHEBI:73605],28.1
